Data from ChEMBL document CHEMBL4340543, “Synthesis and biological evaluation of new HIV-1 protease inhibitors with purine bases as P2-ligands” (Bioorg Med Chem Lett, 2019).

Each compound was assayed against Protease (Human immunodeficiency virus 1, UniProt Q9YQ12) (assay: Inhibition of wild type HIV1 protease expressed in Escherichia coli using Arg-Glu (EDANS)-Ser-Gln-Asn-Tyr-Pro-Ile-Val-Gln-Lys(DABCYL)-Arg as substrate preincubated for 20 to 30 mins followed by substrate addition and measured for 10 mins by FRET assay).
Protease, sequence (Q9YQ12 whole entry): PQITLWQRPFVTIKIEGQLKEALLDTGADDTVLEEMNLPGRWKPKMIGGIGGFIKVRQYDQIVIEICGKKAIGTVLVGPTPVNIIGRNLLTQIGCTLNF

| SMILES | IC50 [nM] |
| --- | --- |
| CC(C)CN(C[C@@H](O)[C@H](Cc1ccccc1)NC(=O)Cn1cnc2c(N)ncnc21)S(=O)(=O)c1ccc([N+](=O)[O-])cc1 | 3580 |
| CC(C)CN(C[C@@H](O)[C@H](Cc1ccccc1)NC(=O)Cn1cnc2cnc(N)nc21)S(=O)(=O)c1ccc([N+](=O)[O-])cc1 | 3680 |
| CC(C)CN(C[C@@H](O)[C@H](Cc1ccccc1)NC(=O)Cn1cnc2c(Cl)nc(N)nc21)S(=O)(=O)c1ccc(N)cc1 | 11700 |
| CC(C)CN(C[C@@H](O)[C@H](Cc1ccccc1)NC(=O)Cn1cnc2cncnc21)S(=O)(=O)c1ccc(N)cc1 | 570 |
| Cc1nc2cncnc2n1CC(=O)N[C@@H](Cc1ccccc1)[C@H](O)CN(CC(C)C)S(=O)(=O)c1ccc(N)cc1 | 640 |
| COc1ncnc2c1ncn2CC(=O)N[C@@H](Cc1ccccc1)[C@H](O)CN(CC(C)C)S(=O)(=O)c1ccc([N+](=O)[O-])cc1 | 2600 |
| COc1ccc(S(=O)(=O)N(CC(C)C)C[C@@H](O)[C@H](Cc2ccccc2)NC(=O)Cn2cnc3c(N)ncnc32)cc1 | 1980 |
| CC(C)CN(C[C@@H](O)[C@H](Cc1ccccc1)NC(=O)Cn1cnc2c(Cl)ncnc21)S(=O)(=O)c1ccc(N)cc1 | 7020 |
| CC(C)CN(C[C@@H](O)[C@H](Cc1ccccc1)NC(=O)Cn1cnc2c(O)ncnc21)S(=O)(=O)c1ccc(N)cc1 | 1810 |
| CC(C)CN(C[C@@H](O)[C@H](Cc1ccccc1)NC(=O)Cn1cnc2c(Cl)nc(N)nc21)S(=O)(=O)c1ccc([N+](=O)[O-])cc1 | 960 |
| COc1nc(N)nc2c1ncn2CC(=O)N[C@@H](Cc1ccccc1)[C@H](O)CN(CC(C)C)S(=O)(=O)c1ccc([N+](=O)[O-])cc1 | 1730 |
| Cc1ncnc2c1ncn2CC(=O)N[C@@H](Cc1ccccc1)[C@H](O)CN(CC(C)C)S(=O)(=O)c1ccc(N)cc1 | 3760 |
| CC(C)CN(C[C@@H](O)[C@H](Cc1ccccc1)NC(=O)Cn1cnc2cnc(N)nc21)S(=O)(=O)c1ccc(N)cc1 | 6790 |
| CC(C)CN(C[C@@H](O)[C@H](Cc1ccccc1)NC(=O)Cn1cnc2c(O)ncnc21)S(=O)(=O)c1ccc([N+](=O)[O-])cc1 | 2430 |
| Cc1nc2cncnc2n1CC(=O)N[C@@H](Cc1ccccc1)[C@H](O)CN(CC(C)C)S(=O)(=O)c1ccc([N+](=O)[O-])cc1 | 570 |
| CC(C)CN(C[C@@H](O)[C@H](Cc1ccccc1)NC(=O)Cn1cnc2c(O)nc(N)nc21)S(=O)(=O)c1ccc([N+](=O)[O-])cc1 | 790 |
| COc1ccc(S(=O)(=O)N(CC(C)C)C[C@@H](O)[C@H](Cc2ccccc2)NC(=O)Cn2c(C)nc3cncnc32)cc1 | 150 |

| SMILES | IC50 [nM] |
| --- | --- |
| COc1ccc(S(=O)(=O)N(CC(C)C)C[C@@H](O)[C@H](Cc2ccccc2)NC(=O)Cn2cnc3cncnc32)cc1 | 240 |
| COc1ccc(S(=O)(=O)N(CC(C)C)C[C@@H](O)[C@H](Cc2ccccc2)NC(=O)Cn2cnc3c(OC)ncnc32)cc1 | 180 |
| CC(C)CN(C[C@@H](O)[C@H](Cc1ccccc1)NC(=O)Cn1cnc2c(Cl)ncnc21)S(=O)(=O)c1ccc([N+](=O)[O-])cc1 | 310 |
| COc1ncnc2c1ncn2CC(=O)N[C@@H](Cc1ccccc1)[C@H](O)CN(CC(C)C)S(=O)(=O)c1ccc(N)cc1 | 1510 |
| COc1ccc(S(=O)(=O)N(CC(C)C)C[C@@H](O)[C@H](Cc2ccccc2)NC(=O)Cn2cnc3c(OC)nc(N)nc32)cc1 | 460 |
| COc1ccc(S(=O)(=O)N(CC(C)C)C[C@@H](O)[C@H](Cc2ccccc2)NC(=O)Cn2cnc3c(O)nc(N)nc32)cc1 | 80 |
| CC(C)CN(C[C@@H](O)[C@H](Cc1ccccc1)NC(=O)Cn1cnc2c(O)nc(N)nc21)S(=O)(=O)c1ccc(N)cc1 | 4730 |
| COc1ccc(S(=O)(=O)N(CC(C)C)C[C@@H](O)[C@H](Cc2ccccc2)NC(=O)Cn2cnc3c(C)ncnc32)cc1 | 42 |
| Cc1ncnc2c1ncn2CC(=O)N[C@@H](Cc1ccccc1)[C@H](O)CN(CC(C)C)S(=O)(=O)c1ccc([N+](=O)[O-])cc1 | 2530 |
| COc1ccc(S(=O)(=O)N(CC(C)C)C[C@@H](O)[C@H](Cc2ccccc2)NC(=O)Cn2cnc3c(O)ncnc32)cc1 | 68 |
| CC(C)CN(C[C@@H](O)[C@H](Cc1ccccc1)NC(=O)Cn1cnc2cncnc21)S(=O)(=O)c1ccc([N+](=O)[O-])cc1 | 2580 |
| COc1ccc(S(=O)(=O)N(CC(C)C)C[C@@H](O)[C@H](Cc2ccccc2)NC(=O)Cn2cnc3cnc(N)nc32)cc1 | 360 |
| COc1nc(N)nc2c1ncn2CC(=O)N[C@@H](Cc1ccccc1)[C@H](O)CN(CC(C)C)S(=O)(=O)c1ccc(N)cc1 | 190 |
| COc1ccc(S(=O)(=O)N(CC(C)C)C[C@@H](O)[C@H](Cc2ccccc2)NC(=O)Cn2cnc3c(Cl)ncnc32)cc1 | 43 |
| CC(C)CN(C[C@@H](O)[C@H](Cc1ccccc1)NC(=O)Cn1cnc2c(N)ncnc21)S(=O)(=O)c1ccc(N)cc1 | 1240 |
| COc1ccc(S(=O)(=O)N(CC(C)C)C[C@@H](O)[C@H](Cc2ccccc2)NC(=O)Cn2cnc3c(Cl)nc(N)nc32)cc1 | 570 |
